This is an account of results in ChEMBL document CHEMBL5321293, “Discovery of ERD-3111 as a Potent and Orally Efficacious Estrogen Receptor PROTAC Degrader with Strong Antitumor Activity” (J Med Chem, 2023).

Each structure is given as a SMILES string.

Series [1] addresses Protein cereblon/Estrogen receptor (Homo sapiens, UniProt P03372+Q96SW2). In words: Protac activity at human ERalpha in ER positive human MCF7 cells assessed as reduction in ERalpha protein level at 0.1 to 30 nM by Western blot analysis. Type of series: cell-based. The note with it: dose 0.1-30 nM.
In series [2] the target is Voltage-gated inwardly rectifying potassium channel KCNH2 (Homo sapiens, UniProt Q12809). Description: Inhibition of human ERG in human HEK293 cells incubated for 5 mins by patch clamp assay. Type of series: toxicity, cell-based.
Series [3] can be described thus: Downregulation of ERalpha protein expression in tumor of CB17 SCID mouse xenografted with human MCF7 cells harboring ESR1 Y537S mutant at 30 mg/kg, po qd for 3 days and measured after 6 hrs last dose by Western blot analysis relative to control. Type of series: functional. The note with it: time 3 day.
The subject of series [4] is MCF7. In words: Antitumor activity against human MCF7 cells harboring ESR1 Y537S mutant xenografted in CB17 SCID mouse assessed as tumor growth inhibition at 30 mg/kg, po qd for 4 weeks. The class given is functional. The note with it: MCF7, 672 h, read-out: TGI.
Another series addresses T1, Cytochrome P450 1A2 (Homo sapiens, UniProt P05177).
T1 sequence (P05177 whole entry): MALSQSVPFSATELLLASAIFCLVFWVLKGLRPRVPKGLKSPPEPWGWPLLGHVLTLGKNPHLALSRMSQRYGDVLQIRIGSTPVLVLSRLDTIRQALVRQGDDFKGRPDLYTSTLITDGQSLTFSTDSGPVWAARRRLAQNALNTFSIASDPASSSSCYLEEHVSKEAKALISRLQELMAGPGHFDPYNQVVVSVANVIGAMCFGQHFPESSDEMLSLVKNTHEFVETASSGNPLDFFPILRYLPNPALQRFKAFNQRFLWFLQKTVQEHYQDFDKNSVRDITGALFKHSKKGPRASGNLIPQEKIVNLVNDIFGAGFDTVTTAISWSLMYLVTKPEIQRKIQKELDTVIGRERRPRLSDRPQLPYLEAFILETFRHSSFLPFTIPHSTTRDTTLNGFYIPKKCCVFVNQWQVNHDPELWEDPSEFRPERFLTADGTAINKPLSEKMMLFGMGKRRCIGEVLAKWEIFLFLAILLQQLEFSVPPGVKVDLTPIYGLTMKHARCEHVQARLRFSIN
In words: Inhibition of CYP1A2 in human liver microsomes preincubated for 5 mins in presence substrate followed by NADPH addition and measured after 10 mins by LC-MS/MS analysis. Type of series: ADME, Microsome.

Series [5] in a line: Drug concentration in plasma of CB17 SCID mouse xenografted with human MCF7 cells harboring ESR1 D538G mutant at 10 mg/kg, po qd for 3 days and measured after 6 hrs last dose by LC-MS/MS analysis. Conditions: time 3 day. Type of series: ADME, organism-based.
The nature of series [6]: Downregulation of ERalpha protein expression in tumor of CB17 SCID mouse xenografted with human MCF7 cells harboring wild type ESR1 at 10 mg/kg, po qd for 3 days and measured after 24 hrs last dose by Western blot analysis relative to control. The class given is functional. The note with it: time 3 day.
Series [7] concerns MCF7. Description: Antitumor activity against human MCF7 cells harboring wild type ESR1 xenografted in CB17 SCID mouse assessed as tumor growth inhibition at 30 mg/kg, po qd for 5 weeks. The class given is functional. Conditions: MCF7, 840 h, read-out: TGI.
The nature of series [8]: Drug concentration in plasma of CB17 SCID mouse xenografted with human MCF7 cells harboring wild type ESR1 at 10 mg/kg, po qd for 3 days and measured after 6 hrs last dose by LC-MS/MS analysis. The class given is ADME, organism-based. The note with it: time 3 day.
Series [9] in a line: Drug concentration in tumor of CB17 SCID mouse xenografted with human MCF7 cells harboring wild type ESR1 at 30 mg/kg, po qd for 3 days and measured after 3 hrs last dose by LC-MS/MS analysis. Type of series: ADME, organism-based, Neoplasm. The note with it: time 3 day, read-out: Ct.
A short description of series [10]: Toxicity in CB17 SCID mouse xenografted with human MCF7 cells harboring wild type ESR1 assessed as body weight change at 10 mg/kg,po qd for 5 weeks. Type of series: organism-based. Conditions: in vivo, 840 h.
The subject of series [11] is MCF7. Description: Antitumor activity against human MCF7 cells harboring wild type ESR1 xenografted in CB17 SCID mouse assessed as tumor growth inhibition at 10 mg/kg, po qd for 5 weeks and measured 3 weeks post last dose. Conditions: MCF7, 840 h, read-out: TGI. The class given is functional.
Series [12] in a line: AUC in Sprague-Dawley rat at 3 mg/kg, po and measured upto 24 hrs by LC-MS/MS analysis. Further details: dose 3 mg/kg, time < 24 hrs, route po. Conditions: Sprague-Dawley, in vivo. The class given is ADME, organism-based.
A short description of series [13]: Oral bioavailability in ICR mouse at 3 mg/kg and measured upto 24 hrs by LC-MS/MS analysis. The class given is ADME, organism-based. The note with it: in vivo.
Series [14] is described as follows: Clearance in ICR mouse at 1 mg/kg, iv and measured upto 24 hrs by LC-MS/MS analysis. Type of series: ADME, organism-based. Conditions: in vivo.

Voltage-gated inwardly rectifying potassium channel KCNH2, sequence (Q12809 whole entry): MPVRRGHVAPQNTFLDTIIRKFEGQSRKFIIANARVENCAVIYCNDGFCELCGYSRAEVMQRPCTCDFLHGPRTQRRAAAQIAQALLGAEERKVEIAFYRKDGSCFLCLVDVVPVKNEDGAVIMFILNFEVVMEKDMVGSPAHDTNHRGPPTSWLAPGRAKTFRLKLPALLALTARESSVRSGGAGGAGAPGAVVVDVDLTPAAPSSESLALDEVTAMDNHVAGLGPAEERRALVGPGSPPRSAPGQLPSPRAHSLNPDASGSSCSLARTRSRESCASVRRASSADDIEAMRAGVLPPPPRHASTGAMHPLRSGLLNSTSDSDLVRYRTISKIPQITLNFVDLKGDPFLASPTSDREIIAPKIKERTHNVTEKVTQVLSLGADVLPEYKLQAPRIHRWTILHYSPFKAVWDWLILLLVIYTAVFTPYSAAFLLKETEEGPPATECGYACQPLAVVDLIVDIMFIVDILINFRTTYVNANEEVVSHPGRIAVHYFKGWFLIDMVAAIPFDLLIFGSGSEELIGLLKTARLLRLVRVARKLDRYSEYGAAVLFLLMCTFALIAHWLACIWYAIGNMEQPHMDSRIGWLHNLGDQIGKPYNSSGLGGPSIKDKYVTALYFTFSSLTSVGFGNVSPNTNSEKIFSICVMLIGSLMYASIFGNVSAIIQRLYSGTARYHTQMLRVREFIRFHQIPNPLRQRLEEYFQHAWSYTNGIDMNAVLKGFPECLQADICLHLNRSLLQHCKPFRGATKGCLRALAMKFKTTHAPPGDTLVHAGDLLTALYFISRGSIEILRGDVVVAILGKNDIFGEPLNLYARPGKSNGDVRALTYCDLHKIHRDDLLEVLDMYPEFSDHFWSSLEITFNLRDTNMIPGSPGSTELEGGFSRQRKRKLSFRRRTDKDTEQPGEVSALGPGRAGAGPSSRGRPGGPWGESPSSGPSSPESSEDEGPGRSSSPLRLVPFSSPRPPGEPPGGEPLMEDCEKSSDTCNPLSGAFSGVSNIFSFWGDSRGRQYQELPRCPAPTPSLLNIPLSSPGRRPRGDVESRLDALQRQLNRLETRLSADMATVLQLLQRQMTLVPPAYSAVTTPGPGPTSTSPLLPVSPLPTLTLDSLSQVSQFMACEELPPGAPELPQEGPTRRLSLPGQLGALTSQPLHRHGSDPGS
Protein cereblon/Estrogen receptor, sequence (P03372 whole entry, looked up): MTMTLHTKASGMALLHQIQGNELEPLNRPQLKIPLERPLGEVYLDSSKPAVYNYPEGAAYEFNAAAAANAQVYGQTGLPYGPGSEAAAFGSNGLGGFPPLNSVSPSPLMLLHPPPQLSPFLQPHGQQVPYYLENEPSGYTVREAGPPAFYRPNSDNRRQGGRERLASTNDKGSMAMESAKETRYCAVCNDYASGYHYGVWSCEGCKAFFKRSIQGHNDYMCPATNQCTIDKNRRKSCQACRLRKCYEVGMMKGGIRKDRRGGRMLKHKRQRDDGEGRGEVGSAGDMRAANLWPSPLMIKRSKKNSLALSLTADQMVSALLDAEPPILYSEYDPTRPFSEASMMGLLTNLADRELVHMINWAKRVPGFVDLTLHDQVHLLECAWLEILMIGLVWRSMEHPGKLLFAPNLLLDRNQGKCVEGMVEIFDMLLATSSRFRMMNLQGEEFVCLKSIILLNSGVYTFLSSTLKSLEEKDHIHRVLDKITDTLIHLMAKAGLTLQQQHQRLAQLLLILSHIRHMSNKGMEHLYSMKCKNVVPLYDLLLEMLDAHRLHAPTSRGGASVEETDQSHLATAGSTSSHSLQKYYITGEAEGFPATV
Protein cereblon/Estrogen receptor, sequence (Q96SW2 whole entry, looked up): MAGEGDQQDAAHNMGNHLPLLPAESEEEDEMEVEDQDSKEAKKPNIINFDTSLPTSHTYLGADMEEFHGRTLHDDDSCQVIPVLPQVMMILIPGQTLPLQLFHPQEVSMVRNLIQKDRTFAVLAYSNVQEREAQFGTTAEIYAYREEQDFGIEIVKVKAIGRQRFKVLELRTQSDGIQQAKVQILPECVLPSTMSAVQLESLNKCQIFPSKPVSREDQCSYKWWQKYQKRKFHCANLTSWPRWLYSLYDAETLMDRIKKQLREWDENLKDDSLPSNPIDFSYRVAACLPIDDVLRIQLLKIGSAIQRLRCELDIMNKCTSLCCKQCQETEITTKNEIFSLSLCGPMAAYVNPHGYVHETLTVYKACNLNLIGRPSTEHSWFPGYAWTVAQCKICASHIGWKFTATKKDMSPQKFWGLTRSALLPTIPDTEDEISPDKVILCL

For `C[C@@H]1Cc2c(ccc3[nH]ncc23)[C@@H](c2c(F)cc(N3CCC4(CCN(C(=O)CN5Cc6cc7c(cc6C5)C(=O)N(C5CCC(=O)NC5=O)C7=O)CC4)CC3)cc2F)N1CC(F)F` (stereo not given in full), the Activity result in [1] was “Dose-Dependent Effect”; in [3], 85%; in series [6], 70%; in series [10] it was “Non-Toxic”. The IC50 in series [2] was > 30 µM; at Cytochrome P450 1A2 it was > 10 µM. Further, the figures for the inhibition in vivo at 30 mg/kg with MCF7 [4] and with MCF7 [7] were 86% and 42%, respectively. Further, the concentration at 72 h in series [5] was found to be 609 ng/mL; in series [8], 433 ng/mL; in series [9], 1410 ng/mL. The inhibition in vivo at 10 mg/kg in the series with MCF7 [11] was 13%. The compound further showed an area under the curve (AUC) at 24 h in [12] of 1320 ng·h/mL. The bioavailability in series [13] worked out at 42%. In [14], this compound displayed a clearance of 5.7 mL/min/kg.
